# Results reported in patent US8101754B2, “Triazole compounds suitable for treating disorders that respond to modulation of the dopamine D3 receptor” (Abbott GmbH & Co. KG, priority 2004, dated 2012).
# Like-named read-outs stand apart in the source and are kept apart here.
# Legend:
# [1] = molecular target: T1, human dopamine D2L receptors (long isoform) (Homo sapiens, UniProt P14416); test: Dopamine D2L receptor binding ([125I] iodospiperone), basis of selectivity Ki(D2)/Ki(D3); details: Table 7; compounds of formula IIa
# T1 construct: expressed in transfected cells; membranes)
# T1 sequence (P14416 whole entry, canonical isoform): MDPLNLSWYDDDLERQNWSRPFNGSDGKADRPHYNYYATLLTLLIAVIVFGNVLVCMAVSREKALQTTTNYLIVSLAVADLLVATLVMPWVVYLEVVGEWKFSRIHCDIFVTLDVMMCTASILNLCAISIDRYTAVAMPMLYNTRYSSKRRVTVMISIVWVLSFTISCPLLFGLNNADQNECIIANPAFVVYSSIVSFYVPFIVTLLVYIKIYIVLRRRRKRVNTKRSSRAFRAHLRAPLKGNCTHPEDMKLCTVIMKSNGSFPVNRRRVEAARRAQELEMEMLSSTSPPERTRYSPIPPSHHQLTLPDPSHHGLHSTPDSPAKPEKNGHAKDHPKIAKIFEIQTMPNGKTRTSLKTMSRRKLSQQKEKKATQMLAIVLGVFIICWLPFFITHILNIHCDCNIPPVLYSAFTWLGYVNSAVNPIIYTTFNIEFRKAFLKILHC
# Description: The substance to be tested was either dissolved in methanol/Chremophor® (BASF-AG) or in dimethyl sulfoxide and then diluted with water to the desired concentration. […] Each assay mixture was run in triplicate. The incubation buffer contained 50 mM tris, 120 mM NaCl, 5 mM KCl, 2 mM CaCl2, 2 mM MgCl2 and 0.1% bovine serum albumin. The buffer was adjusted to pH 7.4 with HCl. Measurement and Analysis: After having been incubated at 25° C. for 60 minutes, the assay mixtures were filtered through a Wathman GF/B glass fiber filter under vacuum using a cell collecting device. The filters were transferred to scintillation viols using a filter transfer system. After 4 ml of Ultima Gold® (Packard) have been added, the samples were shaken for one hour and the radioactivity was then counted in a Beta-Counter (Packard, Tricarb 2000 or 2200CA). The cpm values were converted into dpm using a standard quench series and the program belonging to the instrument. The inhibition curves were analyzed by means of iterative nonlinear regression analysis using the Statistical Analysis System (SAS) which is similar to the “LIGAND” program described by Munson and Rodbard.
# [2] = Concentration of compounds in plasma and brain following oral dosing; format: in vivo, Sprague-Dawley rats; details: Table 7; male rats, 10 mg/kg orally by gavage
# Description: 2. Determination of the Concentration of Compounds in Plasma and Brain Following Dosing of Compounds in Animals
# Male Sprague-Dawley rats were used in this study (2 to 4 per experiment). The animals were fasted overnight prior to dosing and throughout the duration of the study but were permitted water ad libitum.
# Each rat received a 10 mg/kg (5 mL/kg) dose orally by gavage. At 0.5, 3 and 8 hours after drug administration, three animals were put under deep anesthesia using isoflurane and euthanized by bleeding (cardiac puncture) under deep isoflurane anesthesia. EDTA blood samples and brain tissue will be collected from each rat. Upon collection, the samples were promptly placed in an ice bath, and within 2 hours after sample collection, the blood was centrifuged at about 4° C. The resulting brain and plasma samples were placed in clean glass tubes and stored in a freezer until analysis.
# The plasma samples were assayed for parent compound using appropriate liquid chromatography—mass spectrometry procedures. The results for compounds I are given in tables 2, and illustrate the high brain concentrations attainable with the compounds of the invention.
# [3] = molecular target: T2, human dopamine D3 receptors (Homo sapiens, UniProt P35462); test: Dopamine D3 receptor binding ([125I]-iodosulpride displacement)
# T2 construct: expressed in transfected cells; membranes)
# T2 sequence (P35462 whole entry): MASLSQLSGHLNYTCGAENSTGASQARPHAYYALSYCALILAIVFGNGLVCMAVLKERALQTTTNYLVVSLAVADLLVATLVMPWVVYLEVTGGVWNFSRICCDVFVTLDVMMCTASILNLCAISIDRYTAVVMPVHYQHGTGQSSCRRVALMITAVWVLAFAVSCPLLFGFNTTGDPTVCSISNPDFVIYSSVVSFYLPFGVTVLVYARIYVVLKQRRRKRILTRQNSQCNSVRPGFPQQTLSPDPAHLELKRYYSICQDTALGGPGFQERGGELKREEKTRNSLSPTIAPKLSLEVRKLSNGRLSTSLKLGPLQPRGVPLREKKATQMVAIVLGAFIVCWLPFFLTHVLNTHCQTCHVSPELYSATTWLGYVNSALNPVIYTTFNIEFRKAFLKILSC
# Description: The substance to be tested was either dissolved in methanol/Chremophor® (BASF-AG) or in dimethyl sulfoxide and then diluted with water to the desired concentration.
# Each assay mixture was run in triplicate.
# The incubation buffer contained 50 mM tris, 120 mM NaCl, 5 mM KCl, 2 mM CaCl2, 2 mM MgCl2 and 0.1% bovine serum albumin, 10 μM quinolone and 0.1% ascorbic acid (prepared fresh daily). The buffer was adjusted to pH 7.4 with HCl.
# Measurement and Analysis:
# After having been incubated at 25° C. for 60 minutes, the assay mixtures were filtered through a Wathman GF/B glass fiber filter under vacuum using a cell collecting device. The filters were transferred to scintillation viols using a filter transfer system. After 4 ml of Ultima Gold® (Packard) have been added, the samples were shaken for one hour and the radioactivity was then counted in a Beta-Counter (Packard, Tricarb 2000 or 2200CA). The cpm values were converted into dpm using a standard quench series and the program belonging to the instrument.
# The inhibition curves were analyzed by means of iterative nonlinear regression analysis using the Statistical Analysis System (SAS) which is similar to the “LIGAND” program described by Munson and Rodbard.
# [4] = Table 7, compounds of formula IIa, read-out: D3
# [5] = compounds II, read-out: Ki D3 values
SMILES,melting point [°C],D2/D3 [1],Brain level [2] [ng/g],"Ki [3, 4] [nM]","Ki [3, 5] [nM]"
Cl.Cn1cnnc1SCCCN1CCN(c2cc(C(F)(F)F)nc(C(C)(C)C)n2)CC1,92 to 95,–,–,–,–
"CCc1nnc(SCCCN2CCN(c3cc(C(F)(F)F)nc(C(C)(C)C)n3)CC2)n1C.Cl [c.15, 2-tert-Butyl-4-{4-[3-(4-methyl-5-ethyl-4H-[1,2,4]triazol-3-ylsulfanyl)-propyl]-piperazin-1-yl}-6-trifluoromethyl-pyrimidine hydrochloride]",–,364,1410,2,< 5
"Cl.Cn1c(SCCCN2CCN(c3cc(C(F)(F)F)nc(C(C)(C)C)n3)CC2)nnc1C1CC1 [c.17, 2-tert-Butyl-4-{4-[3-(4-methyl-5-cyclopropyl-4H-[1,2,4]triazol-3-ylsulfanyl)-propyl]-piperazin-1-yl}-6-trifluoromethyl-pyrimidine hydrochloride]",182 to 184,293,–,0.9,< 5
